Assay results from paper PMC10144323, “Preparation and Bioevaluation of a Novel ^99mTc-Labeled Glucose Derivative Containing Cyclohexane as a Promising Tumor Imaging Agent” (Pharmaceuticals, 2023).
Where two headings read alike, the source gives them in different places.

Tests used:
S180 tumor-bearing mice = test: Biodistribution in S180 tumor-bearing mice with pre-treatment (uptake mechanism); format: in vivo, female Kunming mice
Experimental: (§1) Animal studies were performed according to the Regulation on Laboratory Animals of the Beijing Municipality and the guidelines of the Ethics Committee of Beijing Normal University (permit no. BNUCC-EAW-2022-001). The A549 tumor-bearing model mice were developed by injecting 2 × 10^6 A549 cells in 0.1 mL of F-12k medium subcutaneously into the armpit of the right upper limb of balb/c nude mice. Similarly, the S180 tumor-bearing model mice were developed by subcutaneously injecting 1 × 10^6 S180 cells in 0.1 mL of saline into the right upper limb of female Kunming mice. The biodistribution of the tumor-bearing mice was determined when the tumor grew to approximately 5 mm after about two weeks of feeding. The A549 tumor mice were injected with 0.1 mL of the radiolabeled [^99mTc]Tc-CNMCHDG or [^99mTc]Tc-CN7DG solution (0.37 MBq) through the tail vein and sacrificed after 30 and 120 min post-injection (n = 3). In addition, to test whether the [^99mTc]Tc-CNMCHDG complex was involved in the glucose transporter mechanism, saline (0.1 mL), 2-deoxy-D-glucose (6 mg per mouse) and insulin (0.25 units per mouse) were injected into S180 tumor mice half an hour before administering the radiolabeled complex, and the mice were sacrificed at 60 min post-injection (n = 5). The organs and tissues of interest, such as heart, liver, lung, kidney, spleen, stomach, bone, intestine and tumor, were dissected, wiped and weighed. Finally, the radioactivity count in these organs and tissues was measured using a γ-counter detector, and the final results were expressed as the percent uptake of injected dose per gram ± the standard deviation (%ID/g ± SD).

A549 tumor-bearing mice [1] = test: SPECT/CT imaging studies; format: in vivo
Experimental: The radiolabeled [^99mTc]Tc-CNMCHDG solution (18.5 MBq) was injected into the A549 tumor-bearing mice via the tail vein, and the SPECT imaging study was performed at 2 h post-injection. In the same tumor mice, at the end of radioactive metabolism, the [^99mTc]Tc-CN7DG solution (18.5 MBq) was injected similarly into the same mice through the tail vein. The mice were anesthetized with 1.5% isoflurane and placed on a SPECT/CT scanner for imaging. The imaging scan settings were as follows: CT scan (512 views, 2 × 2 binding, 75 kV) for 15 min, followed by SPECT acquisition (Peak 140 keV, 20% width, 90° rotation, MMP 919 collimator) after 4 min. HiSPECT software and Vivoquant 2.5 software (Trifoil imaging, CA, USA) were used to acquire the SPECT/CT images (n = 3).

[2] = In vitro stability in mouse serum (radio-HPLC radiochemical purity); format: in vitro ADME; settings: 4 h in mouse serum at 37 °C
Experimental: (§2) The in vitro stability of the [^99mTc]Tc-CNMCHDG complex was determined by measuring its radiochemical purity. The labeled [^99mTc]Tc-CNMCHDG complex solution was placed in saline at room temperature for 4 h, and the radiochemical purity of the complex was calculated using radio-HPLC data to determine whether the complex had good stability at room temperature. Then, 100 μL of labeled solution (1.8 MBq) and 200 μL of mouse serum were added to a centrifuge tube, and the tube was placed in an incubator at 37 °C for 4 h. At the end of the incubation, 600 μL of an acetonitrile solvent was added to the centrifuge tube. Subsequently, the supernatant was filtered through a 0.22-μm filter and taken for HPLC analysis after centrifugation.

[3] = Determination of the partition coefficient (log P); format: physicochemical; settings: n-octanol / phosphate buffer (0.025 M, pH 7.4)
Experimental: To determine the partition coefficient, 1.4 mL of phosphate buffer (0.025 M, pH 7.4) and 1.5 mL of n-octanol was taken into a 5 mL centrifuge tube, to which 0.1 mL of the [^99mTc]Tc-CNMCHDG solution (2.4 MBq) was added into the centrifuge tube in turn. The solution was then vortexed for 3 min and centrifuged for 3 min (3000 r/min). Then, 0.1 mL was removed from the two phases with a pipette gun, respectively, and the radioactive counts of the two phases were measured and used to calculate the partition coefficient P. The final partition coefficient was expressed as log P ± SD.

A549 tumor cells = test: In vitro cellular uptake studies; format: cell-based, Human; settings: glucose-free DMEM, 1 h uptake
Experimental: Human alveolar basal epithelial cells from lung cancer cells (A549 cells) were used in in vitro cellular uptake studies. A549 cells in the logarithmic growth phase were collected, prepared in a cell suspension of 3 × 10^5 cells/mL DMEM medium, and seeded into a 24-well plate (1 mL/well). The cells were evenly dispersed in the holes by vibration. Afterwards, the well plate was placed in a 37 °C incubator with 5% CO2 overnight to enable the cells to grow and stick to the bottom of the wells. After the cells were attached to the wells, the medium in the well plate was aspirated and washed with 0.5 mL of glucose-free DMEM medium, followed by the addition of 0.5 mL of glucose-free DMEM for glucose deprivation. One hour later, 0.1 mL of glucose-free medium, D-glucose (2 mg), L-glucose (2 mg) and insulin (2 IU) were added to the wells, respectively, and the cells were preincubated for 15 min. Subsequently, 0.1 mL of [^99mTc]Tc-CNMCHDG complex solution (0.74 MBq) was added to each well, and the volume of the solution in the wells was made up to 1 mL using the glucose-free DMEM. The well plates continued to be incubated in a 37 °C incubator, and after 1 h, the medium was aspirated and washed twice with 0.5 mL of cold PBS solution (0.067 M, pH 7.4). The cells were lysed by adding 0.5 mL of a sodium hydroxide solution (1 M). Finally, the solution was transferred to plastic test tubes, and the radioactivity counts were measured using a γ-counter detector. This procedure was carried out four times for each group.

A549 tumor-bearing mice [4] = test: Biodistribution in A549 tumor-bearing mice; format: in vivo, balb/c nude mice; settings: for tumor uptake: i.v., n = 3
Experimental: as §1

[5] = In vitro stability in saline (radio-HPLC radiochemical purity); format: physicochemical; settings: 4 h in saline at room temperature
Experimental: as §2

[6] = Pharmacokinetic characteristics (blood time-activity); format: in vivo; settings: healthy Kunming female mice
Experimental: Drug and Statistics (DAS) 3.2.8 software was used to calculate the pharmacokinetic parameters and to study the relationship between drug concentration and time based on the results. Time-activity curve of blood of [^99mTc]Tc-CNMCHDG in healthy kunming female mice was shown in Figure 6 and major pharmacokinetics parameters are listed in Table 1. […] In addition, the blood intake values were all lower than 0.1%ID/g at 90 min post-injection. According to the calculation results of the DAS 3.2.8 software, the distribution of [^99mTc]Tc-CNMCHDG in the blood was in accordance with the three-compartment mode.
Forty Kunming female mice were divided into eight groups and injected with 0.1 mL of [^99mTc]Tc-CNMCHDG (0.37 MBq) via tail vein, and were sacrificed at 2, 5, 10, 30, 60, 90, 120 and 240 min after injection, respectively. The blood samples were collected, weighed and counted a γ-counter detector to calculate the%ID/g value. The blood uptake-time curves were generated and analyzed by DAS 3.2.8 software.

[7] = S180 tumor-bearing mice, 60 min post-injection
[8] = blood, three-compartmental modeling (DAS 3.2.8), i.v.
[9] = blood, three-compartmental modeling, i.v.

- tumor uptake (S180 tumor-bearing mice): 6.30 ± 0.56 %ID/g
- tumor uptake (S180 tumor-bearing mice; S180 tumor-bearing mice, 60 min post-injection, pre-treatment with D-glucose, n = 5): 2.64 ± 0.48 %ID/g
- tumor uptake (S180 tumor-bearing mice; S180 tumor-bearing mice, 60 min post-injection, saline pre-treatment (control), n = 5): 4.66 ± 0.34 %ID/g
- SPECT/CT uptake in non-target areas (liver and kidney) compared to [^99mTc]Tc-CN7DG (A549 tumor-bearing mice [1]; same A549 tumor-bearing mouse, 2 h post-injection): significantly lower
- radiochemical purity after incubation [2]: higher than 90%
- partition coefficient (log P) [3]: −3.65 ± 0.10
- kidney uptake (A549 tumor-bearing mice [4]; 30 min post-injection): 6.54 ± 1.10 %ID/g
- liver uptake (A549 tumor-bearing mice [4]; 30 min post-injection): 2.74 ± 0.31 %ID/g
- lung uptake (A549 tumor-bearing mice [4]; 30 min post-injection): 1.98 ± 0.31 %ID/g
- tumor uptake (A549 tumor-bearing mice [4]; 30 min post-injection): 5.40 ± 0.29 %ID/g
- tumor uptake compared to [^99mTc]Tc-CN7DG (A549 tumor-bearing mice [4]; 120 min post-injection): slightly lower
- tumor/liver ratio (A549 tumor-bearing mice [4]; 120 min post-injection): 3.24 ± 0.25
- tumor/lung ratio (A549 tumor-bearing mice [4]; 120 min post-injection): 5.41 ± 0.39
- uptake in non-target organs such as liver and lung compared to [^99mTc]Tc-CN7DG (A549 tumor-bearing mice [4]; 120 min post-injection): significantly lower
- tumor uptake (A549 tumor-bearing mice [4]; 120 min post-injection): 4.42 ± 0.36 %ID/g
- radiochemical purity after incubation [5]: higher than 90%
- AUC(0-t) [6, 8]: 298.528 %ID/g × min
- AUC(0-∞) [6, 8]: 353.484 %ID/g × min
- t1/2α (blood distribution half-life) [6, 9]: 0.598 min
- t1/2β (elimination half-life, fast chamber) [6, 9]: 10.706 min
- t1/2γ (elimination half-life, slow chamber) [6, 9]: 218.932 min
- blood uptake value ([6]; 2 min post-injection, i.v., n = 5): 21.22 ± 2.00 %ID/g
- blood uptake value ([6]; 30 min post-injection): 1.50 ± 0.15 %ID/g
- blood uptake value ([6]; 60 min post-injection): 0.37 ± 0.16 %ID/g
- blood intake values ([6]; at 90 min post-injection): lower than 0.1 %ID/g
SMILES: O=C(NC1C(O)OC(CO)C(O)C1O)C1CCC(C[N+]#[C][99Tc+]([C]#[N+]CC2CCC(C(=O)NC3C(O)OC(CO)C(O)C3O)CC2)([C]#[N+]CC2CCC(C(=O)NC3C(O)OC(CO)C(O)C3O)CC2)([C]#[N+]CC2CCC(C(=O)NC3C(O)OC(CO)C(O)C3O)CC2)([C]#[N+]CC2CCC(C(=O)NC3C(O)OC(CO)C(O)C3O)CC2)[C]#[N+]CC2CCC(C(=O)NC3C(O)OC(CO)C(O)C3O)CC2)CC1 (centres unmarked) [[^99mTc]Tc-CNMCHDG]
- decrease of tumor uptake by D-glucose pre-treatment (S180 tumor-bearing mice; [7]): 43%
- increase of tumor uptake by insulin pre-treatment (S180 tumor-bearing mice; [7]): 35%
- route of metabolism/excretion in vivo (SPECT/CT signals in bladder and kidney) (A549 tumor-bearing mice [1]; A549 tumor-bearing mouse, 2 h after administration): mainly metabolized through the urine system
- visualization of the tumor by SPECT/CT (A549 tumor-bearing mice [1]; A549 tumor-bearing mouse, 2 h after administration, 18.5 MBq i.v.): clearly visualized
- inhibition of cellular uptake by D-glucose (A549 tumor cells; D-glucose (2 mg) preincubated 15 min, p = 0.009): 29%
- change of cellular uptake by L-glucose (A549 tumor cells; L-glucose (2 mg) preincubated 15 min): not significantly changed
- increase of cellular uptake after insulin (A549 tumor cells; insulin (2 IU) preincubated 15 min, p = 0.002): 57%
